In patent publication US20220202696A1, “AGENT FOR PROMOTING COLLAGEN PRODUCTION, MEDICAMENT, COSMETIC, AND METHOD FOR MANUFACTURING AGENT FOR PROMOTING COLLAGEN PRODUCTION” (Murata Manufacturing Co., Ltd., priority 2019, published 2022):

System: Normal human dermal fibroblasts
Experiment: Type I collagen production in aging induction-treated fibroblasts (ELISA)
Format: cell-based
Settings: positive control at 25 μmol/L, 48 hours culture, aging induction-treated cells, ELISA of medium
Procedure: Normal human dermal fibroblasts were maintained using a DMEM medium (+5% FBS) in a culture vessel to confluence. […] After this procedure was repeated once daily for 4 days, the cells were further cultured in DMEM (10% FBS) for 3 days, and the cultured cells were obtained and used as aging induction-treated cells. The aging induction of the cells was confirmed by senescence-associated beta-galactosidase (SA-β-Gal, an aging marker) staining. The aging induction-treated cells were seeded in 48-well plate at a cell density of 5.0×10^4 cells/well using a DMEM medium (+5% FBS). […] Then, the cells were cultured for 48 hours, thereafter the medium was collected, and the amount of type I collagen in the medium was quantified by an ELISA method (direct ELISA using an anti-Human Collagen Type I antibody (Rabbit)).

O=C1O[C@H]([C@@H](O)CO)C(O)=C1O [vitamin C]
production of type I collagen: increased
